The record followed here is US20100292188A1, “Compounds Comprising A Cyclobutoxy Group” (UCB PHARMA S.A., priority 2008, published 2010).

Bounds are passed on as bounds.

For `CC(C)Oc1c(N2CCc3nc(-c4ccc(O[C@H]5C[C@H](N6CCCCC6)C5)cc4)sc3C2)c(=O)c1=O` [Compound 56, 3-isopropoxy-4-[2-{4-[(trans-3-piperidin-1-ylcyclobutyl)oxy]phenyl}-6,7-dihydro[1,3]thiazolo[5,4-c]pyridin-5(4H)-yl]cyclobut-3-ene-1,2-dione], the melting point lay in the range of 157 to 159 °C.
`CC(=O)N1CCCc2sc(-c3ccc(O[C@H]4C[C@H](N5CCCCC5)C4)cc3)nc21` [Compound 30, 4-acetyl-2-{4-[(trans-3-piperidin-1-ylcyclobutyl)oxy]phenyl}-4,5,6,7-tetrahydro[1,3]thiazolo[4,5-b]pyridine] returned a melting point of 146 °C.
The molecule `O=S(=O)(N1CCOCC1)N1CCc2nc(-c3ccc(O[C@H]4C[C@H](N5CCCCC5)C4)cc3)sc2C1` [Compound 7, 5-(morpholin-4-ylsulfonyl)-2-{4-[(trans-3-piperidin-1-ylcyclobutyl)oxy]phenyl}-4,5,6,7-tetrahydro[1,3]thiazolo[5,4-c]pyridine] showed a melting point of 178 °C.
As for `OCC(O)CN1CCc2nc(-c3ccc(O[C@H]4C[C@H](N5CCCCC5)C4)cc3)sc2C1` (stereo partly drawn) [Compound 15, 3-[2-{4-[(trans-3-piperidin-1-ylcyclobutyl)oxy]phenyl}-6,7-dihydro[1,3]thiazolo[5,4-c]pyridin-5(4H)-yl]propane-1,2-diol], the figure is 169 °C; as for `c1cc2nc(-c3ccc(O[C@H]4C[C@H](N5CCCCC5)C4)cc3)[nH]c2cn1` [Compound 69, 2-{4-[(trans-3-piperidin-1-ylcyclobutyl)oxy]phenyl}-3H-imidazo[4,5-c]pyridine], 165 to 172 °C.
Regarding `CC(=O)N1CCc2nc(-c3ccc(O[C@H]4C[C@H](N5CCN(C(C)C)CC5)C4)cc3)sc2C1` [Compound 12, 5-acetyl-2-(4-{[trans-3-(4-isopropylpiperazin-1-yl)cyclobutyl]oxy}phenyl)-4,5,6,7-tetrahydro[1,3]thiazolo[5,4-c]pyridine], the melting point was found to be 109 °C.
Molecule `O=C(N1CCOCC1)N1CCc2nc(-c3ccc(O[C@H]4C[C@H](N5CCCCC5)C4)cc3)sc2C1` [Compound 6, 5-(morpholin-4-ylcarbonyl)-2-{4-[(trans-3-piperidin-1-ylcyclobutyl)oxy]phenyl}-4,5,6,7-tetrahydro[1,3]thiazolo[5,4-c]pyridine] showed a melting point of 149.3 °C.
As for `CC(=O)N1CCc2nc(-c3ccc(O[C@H]4C[C@H](N5CCOCC5)C4)cc3)sc2C1` [Compound 8, 5-acetyl-2-{4-[(trans-3-morpholin-4-ylcyclobutyl)oxy]phenyl}-4,5,6,7-tetrahydro[1,3]thiazolo[5,4-c]pyridine], the melting point was 161.6 to 162.2 °C.
`O=c1c(O)c(N2CCc3nc(-c4ccc(O[C@H]5C[C@H](N6CCCCC6)C5)cc4)sc3C2)c1=O` [Compound 55, 3-hydroxy-4-[2-{4-[(trans-3-piperidin-1-ylcyclobutyl)oxy]phenyl}-6,7-dihydro[1,3]thiazolo[5,4-c]pyridin-5(4H)-yl]cyclobut-3-ene-1,2-dione]: the melting point is above 220 °C.
Take `OC[C@@H](O)CN1CCc2nc(-c3ccc(O[C@H]4C[C@H](N5CCCCC5)C4)cc3)sc2C1` [Compound 16, (2S)-3-[2-{4-[(trans-3-piperidin-1-ylcyclobutyl)oxy]phenyl}-6,7-dihydro[1,3]thiazolo[5,4-c]pyridin-5(4H)-yl]propane-1,2-diol]: the melting point is 175 °C.
`NCC(=O)N1CCc2nc(-c3ccc(O[C@H]4C[C@H](N5CCCCC5)C4)cc3)sc2C1` [Compound 9, 2-oxo-2-[2-{4-[(trans-3-piperidin-1-ylcyclobutyl)oxy]phenyl}-6,7-dihydro[1,3]thiazolo[5,4-c]pyridin-5(4H)-yl]ethanamine] came in with a melting point of 199 °C.
With `NC(=O)CN1CCc2nc(-c3ccc(O[C@H]4C[C@H](N5CCCCC5)C4)cc3)sc2C1` [Compound 18, 2-[2-{4-[(trans-3-piperidin-1-ylcyclobutyl)oxy]phenyl}-6,7-dihydro[1,3]thiazolo[5,4-c]pyridin-5(4H)-yl]acetamide], the melting point stood at 231 °C.
`CC(=O)N1CCc2nc(-c3ccc(O[C@H]4C[C@H](N5CCC(F)(F)CC5)C4)cc3)sc2C1` [Compound 13, 5-acetyl-2-(4-{[trans-3-(4,4-difluoropiperidin-1-yl)cyclobutyl]oxy}phenyl)-4,5,6,7-tetrahydro[1,3]thiazolo[5,4-c]pyridine] had a melting point of 175 °C.
In turn, `COCC(=O)N1CCc2nc(-c3ccc(O[C@H]4C[C@H](N5CCCCC5)C4)cc3)sc2C1` [Compound 2, 5-(methoxyacetyl)-2-{4-[(trans-3-piperidin-1-ylcyclobutyl)oxy]phenyl}-4,5,6,7-tetrahydro[1,3]thiazolo[5,4-c]pyridine] showed a melting point of 128 °C.
`NC(=O)NCC(=O)N1CCc2nc(-c3ccc(O[C@H]4C[C@H](N5CCCCC5)C4)cc3)sc2C1` [Compound 52, 1-{2-oxo-2-[2-{4-[(trans-3-piperidin-1-ylcyclobutyl)oxy]phenyl}-6,7-dihydro[1,3]thiazolo[5,4-c]pyridin-5(4H)-yl]ethyl}urea] showed a melting point of 209 to 210 °C.
The molecule `CC(=O)N1CCc2nc(-c3ccc(O[C@H]4C[C@H](N5CCN(C6CCCC6)CC5)C4)cc3)sc2C1` [Compound 51, 5-acetyl-2-(4-{[trans-3-(4-cyclopentylpiperazin-1-yl)cyclobutyl]oxy}phenyl)-4,5,6,7-tetrahydro[1,3]thiazolo[5,4-c]pyridine] showed a melting point of 145.7 to 146.1 °C.
`CC(=O)NCCC(=O)N1CCc2nc(-c3ccc(O[C@H]4C[C@H](N5CCCCC5)C4)cc3)sc2C1` [Compound 42, N-{3-oxo-3-[2-{4-[(trans-3-piperidin-1-ylcyclobutyl)oxy]phenyl}-6,7-dihydro[1,3]thiazolo[5,4-c]pyridin-5(4H)-yl]propyl}acetamide]: the melting point turned out to be 144 °C.
In turn, `c1cc2sc(-c3ccc(O[C@H]4C[C@H](N5CCCCC5)C4)cc3)nc2cn1` [Compound 32, 2-{4-[(trans-3-piperidin-1-ylcyclobutyl)oxy]phenyl}[1,3]thiazolo[4,5-c]pyridine] registered a melting point of 65 °C.
With `NC(=O)CC(=O)N1CCc2nc(-c3ccc(O[C@H]4C[C@H](N5CCCCC5)C4)cc3)sc2C1` [Compound 25, 3-oxo-3-[2-{4-[(trans-3-piperidin-1-ylcyclobutyl)oxy]phenyl}-6,7-dihydro[1,3]thiazolo[5,4-c]pyridin-5(4H)-yl]propanamide], the melting point stood at 176 °C.
`O=C(CO)N1CCc2nc(-c3ccc(O[C@H]4C[C@H](N5CCCCC5)C4)cc3)sc2C1` [Compound 11, 2-oxo-2-[2-{4-[(trans-3-piperidin-1-ylcyclobutyl)oxy]phenyl}-6,7-dihydro[1,3]thiazolo[5,4-c]pyridin-5(4H)-yl]ethanol] came in with a melting point of 177 °C.
As to `O=C(C1CCOCC1)N1CCc2nc(-c3ccc(O[C@H]4C[C@H](N5CCCCC5)C4)cc3)sc2C1` [Compound 45, 2-{4-[(trans-3-piperidin-1-ylcyclobutyl)oxy]phenyl}-5-(tetrahydro-2H-pyran-4-ylcarbonyl)-4,5,6,7-tetrahydro[1,3]thiazolo[5,4-c]pyridine], the melting point was 175 to 176 °C.
As for `NC(=O)CC(=O)N1CCc2sc(-c3ccc(O[C@H]4C[C@H](N5CCCCC5)C4)cc3)nc2C1` [Compound 65, 3-oxo-3-[2-{4-[(trans-3-piperidin-1-ylcyclobutyl)oxy]phenyl}-6,7-dihydro[1,3]thiazolo[4,5-c]pyridin-5(4H)-yl]propanamide], the figure is 183.4 °C.
Take `O=C(O)COCC(=O)N1CCc2nc(-c3ccc(O[C@H]4C[C@H](N5CCCCC5)C4)cc3)sc2C1` [Compound 43, {2-oxo-2-[2-{4-[(trans-3-piperidin-1-ylcyclobutyl)oxy]phenyl}-6,7-dihydro[1,3]thiazolo[5,4-c]pyridin-5(4H)-yl]ethoxy}acetic acid]: the melting point was above 200 °C.
In turn, `CC(=O)N1CCc2oc(-c3ccc(O[C@H]4C[C@H](N5CCCCC5)C4)cc3)nc2C1` [Compound 28, 5-acetyl-2-{4-[(trans-3-piperidin-1-ylcyclobutyl)oxy]phenyl}-4,5,6,7-tetrahydro[1,3]oxazolo[4,5-c]pyridine] showed a melting point of 141.9 °C.
On to `OCCN1CCc2nc(-c3ccc(O[C@H]4C[C@H](N5CCCCC5)C4)cc3)sc2C1` [Compound 37, 2-[2-{4-[(trans-3-piperidin-1-ylcyclobutyl)oxy]phenyl}-6,7-dihydro[1,3]thiazolo[5,4-c]pyridin-5(4H)-yl]ethanol], for which the melting point came out at 142 °C.
On to `O=C(CO)N1CCc2sc(-c3ccc(O[C@H]4C[C@H](N5CCCCC5)C4)cc3)nc2C1` [Compound 63, 2-oxo-2-[2-{4-[(trans-3-piperidin-1-ylcyclobutyl)oxy]phenyl}-6,7-dihydro[1,3]thiazolo[4,5-c]pyridin-5(4H)-yl]ethanol], for which the melting point is 155.3 °C.
As for `CCNC(=O)N1CCc2nc(-c3ccc(O[C@H]4C[C@H](N5CCCCC5)C4)cc3)sc2C1` [Compound 21, N-ethyl-2-{4-[(trans-3-piperidin-1-ylcyclobutyl)oxy]phenyl}-6,7-dihydro[1,3]thiazolo[5,4-c]pyridine-5(4H)-carboxamide], the melting point came to 200 °C.
With `O=C(C(O)C(F)(F)F)N1CCc2nc(-c3ccc(O[C@H]4C[C@H](N5CCCCC5)C4)cc3)sc2C1` (stereo partly drawn) [Compound 44, 1,1,1-trifluoro-3-oxo-3-[2-{4-[(trans-3-piperidin-1-ylcyclobutyl)oxy]phenyl}-6,7-dihydro[1,3]thiazolo[5,4-c]pyridin-5(4H)-yl]propan-2-ol], the melting point is 147 to 148 °C.
`O=C(CCCN1CC[S+]([O-])CC1)N1CCc2nc(-c3ccc(O[C@H]4C[C@H](N5CCCCC5)C4)cc3)sc2C1` [Compound 41, 5-[4-(1-oxidothiomorpholin-4-yl)butanoyl]-2-{4-[(trans-3-piperidin-1-ylcyclobutyl)oxy]phenyl}-4,5,6,7-tetrahydro[1,3]thiazolo[5,4-c]pyridine] had a melting point of 165 °C.
In turn, `O=C(C(O)CO)N1CCc2nc(-c3ccc(O[C@H]4C[C@H](N5CCCCC5)C4)cc3)sc2C1` (stereo partly drawn) [Compound 54, 3-oxo-3-[2-{4-[(trans-3-piperidin-1-ylcyclobutyl)oxy]phenyl}-6,7-dihydro[1,3]thiazolo[5,4-c]pyridin-5(4H)-yl]propane-1,2-diol] showed a melting point of 167 to 168 °C.
